Results on 21 compounds are retold here after US20190275012A9, “SUBSTITUTED THIAZOLO-PYRIDINE COMPOUNDS AS MALT1 INHIBITORS” (Lupin Limited, priority 2016, published 2019).

This test has as its system NF-kB transcriptional activity in HEK-293-NF-kB-Luc cell line overexpressing MALT1. As to the kind of experiment: NF-kB reporter assay (luciferase, MALT1 stably overexpressed). Format: cell-based. The settings on record: Homo sapiens, 24 h, HEK-293-NF-kB-Luc cells stably overexpressing MALT1, 24 h treatment, Bright Glo luminescence; read-out: NF-kB inhibition IC50. On the procedure:
The NF-⇐B reporter assay was performed to screen for MALT1 inhibition mediated reduction in the NF-⇐B transcriptional activity. For this purpose, MALT1 was stably overexpressed in HEK-293—NF-⇐B-Luc cell line. Cells were seeded in poly-D-lysine coated 96-well plates in a culture medium containing the selection markers (DMEM+10% FBS+50 |g/ml Hygromycin+500 |g/ml Geniticin) and allowed to adhere overnight. On the following day, cells were treated with various concentrations of test compounds for 24 h. After 24 h of treatment with test compounds, media was removed from each well and Bright Glo™ (Promega, USA) substrate was added and incubated for further 10 min at ambient temperature. Luminescence was measured for detection of NF-⇐B reporter activity. RLUs (Relative Luminescence Units) were directly proportional to the NF-⇐B activity. % inhibition of NF-⇐B activity was calculated relative to the samples containing media with 0.1% DMSO alone as per the following formula
For the compound `Cc1nc2c(N3CCCOCC3)c(NC(=O)Nc3cnc(-n4nccn4)c(Cl)c3)cnc2s1` [Compound 67, 1-(5-Chloro-6-(2H-1,2,3-triazol-2-yl)pyridin-3-yl)-3-(2-methyl-7-(1,4-oxazepan-4-yl)thiazolo[5,4-b]pyridin-6-yl)urea], the IC50 fell in the range of 101 to 500 nM.

Consider `COc1nc(-n2nccn2)c(Cl)cc1NC(=O)Nc1cnc2sc(C)nc2c1C(OC)C(C)C` (stereo not drawn) [Compound 81a, 1-(5-Chloro-2-methoxy-6-(2H-1,2,3-triazol-2-yl)pyridin-3-yl)-3-(7-(1-methoxy-2-methylpropyl)-2-methylthiazolo[5,4-b]pyridin-6-yl)urea], for which the IC50 fell in the range of 1 to 100 nM.

For the compound `COc1ncc(NC(=O)Nc2cnc3sc(C)nc3c2C2=CCOCC2)cc1Cl` [Compound 58, 1-(5-Chloro-6-methoxypyridin-3-yl)-3-(7-(3,6-dihydro-2H-pyran-4-yl)-2-methylthiazolo[5,4-b]pyridin-6-yl)urea], the IC50 lay within 501 to 1500 nM.

As to `COc1nc(-n2ccnn2)c(Cl)cc1NC(=O)Nc1cnc2sc(C)nc2c1C(C)OC` (single isomer, unassigned) [Compound 91a, 1-(5-Chloro-2-methoxy-6-(1H-1,2,3-triazol-1-yl)pyridin-3-yl)-3-(7-(1-methoxyethyl)-2-methylthiazolo[5,4-b]pyridin-6-yl)urea], the IC50 is 1 to 100 nM.

With `COC(C)(c1c(NC(=O)Nc2cnc(-n3nccn3)c(C(F)(F)F)c2)cnc2sc(C)nc12)C1CC1` (single isomer, unassigned) [Compound 93a, 1-(6-(2H-1,2,3-triazol-2-yl)-5-(trifluoromethyl)pyridin-3-yl)-3-(7-(1-cyclopropyl-1-methoxyethyl)-2-methylthiazolo[5,4-b]pyridin-6-yl)urea], the IC50 lay in the range of 1 to 100 nM.

As for `COc1cc(-n2ccnn2)c(Cl)cc1NC(=O)Nc1cnc2sc(C)nc2c1C(C)OC` (single isomer, unassigned) [Compound 132b, 1-(5-Chloro-2-methoxy-4-(1H-1,2,3-triazol-1-yl)phenyl)-3-(7-(1-methoxyethyl)-2-methylthiazolo[5,4-b]pyridin-6-yl)urea], the IC50 was 1 to 100 nM.

Regarding `Cc1nc2c(C(C)C)c(NC(=O)Nc3ccc(-n4nccn4)c(Cl)c3)cnc2s1` [Compound 188, 1-(3-Chloro-4-(2H-1,2,3-triazol-2-yl)phenyl)-3-(7-isopropyl-2-methylthiazolo[5,4-b]pyridin-6-yl)urea], the IC50 fell in the range of 101 to 500 nM.

`COc1ncc(NC(=O)Nc2cnc3sc(C)nc3c2C2(C)CC2)cc1Cl` [Compound 117, 1-(5-Chloro-6-methoxypyridin-3-yl)-3-(2-methyl-7-(1-methylcyclopropyl)thiazolo[5,4-b]pyridin-6-yl)urea]: the IC50 fell in the range of 1 to 100 nM.

As to `CCOC(C)c1c(NC(=O)Nc2cc(Cl)c(-n3nccn3)nc2OC)cnc2sc(C)nc12` (single isomer, unassigned) [Compound 166b, 1-(5-Chloro-2-methoxy-6-(2H-1,2,3-triazol-2-yl)pyridin-3-yl)-3-(7-(1-ethoxyethyl)-2-methylthiazolo[5,4-b]pyridin-6-yl)urea], the IC50 fell in the range of 1 to 100 nM.

For the compound `COC(C)c1c(NC(=O)Nc2cnc(-n3ccnn3)c(C(F)(F)F)c2)cnc2sc(C)nc12` (single isomer, unassigned) [Compound 141a, 1-(6-(1H-1,2,3-Triazol-1-yl)-5-(trifluoromethyl)pyridin-3-yl)-3-(7-(1-methoxyethyl)-2-methylthiazolo[5,4-b]pyridin-6-yl)urea], the IC50 lay within 1 to 100 nM.

On to `Cc1nc2c(C3CC3)c(NC(=O)Nc3ccc(-c4nnco4)c(Cl)c3)cnc2s1` [Compound 63, 1-(3-Chloro-4-(1,3,4-oxadiazol-2-yl)phenyl)-3-(7-cyclopropyl-2-methylthiazolo[5,4-b]pyridin-6-yl)urea], for which the 50% inhibitory concentration (IC50) lay in the range of 101 to 500 nM.

As to `COC(C)c1c(NC(=O)Nc2ccc(-c3ncccn3)c(Cl)c2)cnc2sc(C)nc12` (single isomer, unassigned) [Compound 202, (S) or (R)-1-(3-Chloro-4-(pyrimidin-2-yl)phenyl)-3-(7-(1-methoxyethyl)-2-methylthiazolo[5,4-b]pyridin-6-yl)urea], the IC50 lay in the range of 1 to 100 nM.

For `COCCN(c1c(NC(=O)Nc2ccc(-n3nccn3)c(Cl)c2)cnc2sc(C)nc12)C1CC1` [Compound 68, 1-(3-Chloro-4-(2H-1,2,3-triazol-2-yl)phenyl)-3-(7-(cyclopropyl(2-methoxyethyl)amino)-2-methylthiazolo[5,4-b]pyridin-6-yl)urea], the IC50 lay in the range of 101 to 500 nM.

For the compound `CCC(OC)c1c(NC(=O)Nc2cnc(OC)c(Cl)c2)cnc2sc(C)nc12` (single isomer, unassigned) [Compound 127a, 1-(5-Chloro-6-methoxypyridin-3-yl)-3-(7-(1-methoxypropyl)-2-methylthiazolo[5,4-b]pyridin-6-yl)urea], the IC50 lay within 1 to 100 nM.

In the case of `COc1nc(-n2nccn2)c(Cl)cc1NC(=O)Nc1cnc2sc(C)nc2c1C(C)C` [Compound 184, 1-(5-Chloro-2-methoxy-6-(2H-1,2,3-triazol-2-yl)pyridin-3-yl)-3-(7-isopropyl-2-methylthiazolo[5,4-b]pyridin-6-yl)urea], the IC50 is 1 to 100 nM.

Take `CCc1nc2c(C(C)OC)c(NC(=O)Nc3cnc(-n4nccn4)c(C(F)(F)F)c3)cnc2s1` (stereo not drawn) [Compound 232b, 1-(6-(2H-1,2,3-Triazol-2-yl)-5-(trifluoromethyl)pyridin-3-yl)-3-(2-ethyl-7-(1-methoxyethyl)thiazolo[5,4-b]pyridin-6-yl)urea]: the half-maximal inhibitory concentration (IC50) fell in the range of 1 to 100 nM.

Regarding `CCC(OC)c1c(NC(=O)Nc2cnc(-n3nccn3)c(C(F)(F)F)c2)cnc2sc(C)nc12` (single isomer, unassigned) [Compound 146a, 1-(6-(2H-1,2,3-Triazol-2-yl)-5-(trifluoromethyl)pyridin-3-yl)-3-(7-(1-methoxypropyl)-2-methylthiazolo[5,4-b]pyridin-6-yl)urea], the IC50 is 1 to 100 nM.

As for `CCC(c1c(NC(=O)Nc2cnc(-n3nccn3)c(C(F)(F)F)c2)cnc2sc(C)nc12)N1CC(F)(F)C1` (stereo not drawn) [Compound 229b, 1-(6-(2H-1,2,3-Triazol-2-yl)-5-(trifluoromethyl)pyridin-3-yl)-3-(7-(1-(3,3-difluoroazetidin-1-yl)propyl)-2-methylthiazolo[5,4-b]pyridin-6-yl)urea], the IC50 lay within 1 to 100 nM.

In the case of `Cc1nc2c(N(C)C3CC3)c(NC(=O)Nc3cnc(-n4nccn4)c(C(F)(F)F)c3)cnc2s1` [Compound 100, 1-(6-(2H-1,2,3-Triazol-2-yl)-5-(trifluoromethyl)pyridin-3-yl)-3-(7-(cyclopropyl(methyl)amino)-2-methylthiazolo[5,4-b]pyridin-6-yl)urea], the 50% inhibitory concentration (IC50) is 1 to 100 nM.

As to `COc1ncc(Cl)cc1NC(=O)Nc1cnc2sc(C)nc2c1C(C)OC` (single isomer, unassigned) [Compound 120b, 1-(5-chloro-2-methoxypyridin-3-yl)-3-(7-(1-methoxyethyl)-2-methylthiazolo[5,4-b]pyridin-6-yl)urea], the IC50 was 1 to 100 nM.

With `Cc1nc2c(C3CCCCO3)c(NC(=O)Nc3cnc(-n4nccn4)c(Cl)c3)cnc2s1` (single isomer, unassigned) [Compound 140b, 1-(5-Chloro-6-(2H-1,2,3-triazol-2-yl)pyridin-3-yl)-3-(2-methyl-7-(tetra hydro-2H-pyran-2-yl)thiazolo[5,4-b]pyridin-6-yl)urea], the IC50 lay within 101 to 500 nM.
